In assay [1] the target is human nociceptin/orphanin FQ peptide receptor (hNOP) (Homo sapiens (Human), UniProt P41146). Type of assay: binding.
Assay [2] addresses human mu-opioid receptor (hMOP) (Homo sapiens (Human), UniProt P35372). Type of assay: binding.
The target of assay [3] is human delta-opioid receptor (hDOP) (Homo sapiens (Human), UniProt P41143). The assay is described as follows: hDOP receptor binding assay (SPA, [3H]2-D-Ala-deltorphin II). Particulars: concentration not given; neighbouring values @1μM.

Take `CCN(C)[C@]1(c2ccccc2)CC[C@]2(CC1)CN(CC(C)(C)C(N)=O)C(=O)N2` [SC_5064, CIS-3-[8-(Ethyl-methyl-amino)-2-oxo-8-phenyl-1,3-diazaspiro[4.5]decan-3-yl]-2,2-dimethyl-propionamide]: the “hNOP % @1μM (given instead of Ki)” value in assay [1] is 3% @1μM. Further, the “hMOP % @1μM (given instead of Ki)” value in assay [2] is listed as 3% @1μM. Further, in assay [3], the “DOP %” value is listed as “(DOP 20%)”.

Regarding `CCN(C)C1(c2ccccc2)CCC2(CC1)CN(CC(C)(C)C(N)=O)C(=O)N2C` (stereo not drawn) [SC_5066, CIS-3-[8-(Ethyl-methyl-amino)-1-methyl-2-oxo-8-phenyl-1,3-diazaspiro[4.5]decan-3-yl]-2,2-dimethyl-propionamide], the “hNOP % @1μM (given instead of Ki)” value in assay [1] worked out at 0% @1μM. In addition, the “hMOP % @1μM (given instead of Ki)” value in assay [2] turned out to be 7% @1μM. Moreover, the “DOP %” value in assay [3] is reported as “(DOP 22%)”.

Values taken from patent US10793528B2 (priority 2016, dated 2020).
